Patent US8242152B2, “Use of 4-[(4-thiazolyl)phenoxy]alkoxy-benzamidine derivatives for the prophylaxis and treatment of osteoporosis” (Dong Wha Pharmaceutical Co., Ltd., priority 2001, dated 2012)
“And” between values parts separate entries of the source, which are not always exact repeats. Equal entries are not always repeated.

Assays:
[1] = system: sciatic nerve neurectomized ddY mice; test: Prophylactic effects in neurectomized ddY mouse model (immobilization osteoporosis); format: in vivo; details: for TBV (%): epiphyseal regions of right tibia; for Cbt (um): mid-shaft regions of right tibia; for histological profiles of epiphyseal regions: FIG. 10, Hematoxylin-Eosin; for TBV % compared to control group (in words) / cortical bone thickness compared to control group (in words): right tibia, Fosamax 1 mg/kg, DW1350MSA 10 and 50 mg/kg
Description: The effects of a drug would be based on histomorphometric changes of trabecular bone and thickness of cortical bone in this model.
The objective of the present study is to observe the anti-osteoporotic potential of DW1350MSA, and administration of the drug was initiated 2 days after neurectomy for prophylaxis study.
(§1) Twenty-five female ddY mice (6-wk old upon receipt, SLC, Japan) were used after acclimatization for 7 days. Animals were allocated to 5 per polycarbonate cage in a temperature (20-25° C.) and humidity (30-35%) controlled room. Light:dark cycle was 12 hr:12 hr and feed (Samyang, Korea) and water were supplied free to access. 20 mice were neurectomized and 5 mice were sham operated. For the prophylaxis study, treatment was initiated 2 days after neurectomy and then each sample was administrated for 4 weeks.
DW1350MSA was dissolved in injectable distilled water and administered at a dosage volume of 10 ml/kg by oral gavage. The administered dose and schedule of these drugs are shown as Table 12.
3) Operation • A. Sham operation: The right side of the sciatic nerve was exposed by incision of skin and hip muscles, (about 1 cm) after that closed by skin suture. • B. neurectomy: After exposure of the right side of the sciatic nerve, about 1 mm of sciatic nerve was removed. After that closed by routine methods. • C. Operation was conducted under Ketamine hydrochloride (M.W.=256.8; 23076-35-9, ICN Biochemicals Inc., USA) and Xylazine hydrochloride (M.W.=274.19; 116-00512, Wako Pure Chemical Industries Ltd., Japan) anesthesia.
After that, embedded in paraffin, sectioned (3˜4 um) and stained with hematoxylin-eosin strain.
Mid-shaft cortical bone of tibia, and trabecular bone volume % of tibia were evaluated. In addition, histological profiles of epiphyseal regions of right tibia and femur were also observed. • A. Measurement of trabecular bone volume (TBV) Trabecular bone volume was calculated using automated image analysis (analySIS Image Processing; SIS, Germany) under magnification […] (×200) of microscopy (Zeiss, Germany) in the uniform area of epiphyseal regions of the right tibia and/or femur (growth plate regions were excluded). Trabecular bone volume was calculated as percentage levels. • B. Thickness of cortical bone (Cbt): Cortical bone thickness was detected in mid-shaft regions of right tibia and/or femur, and they were calculated using an automated image analyzer (analysis Image Processing; SIS, Germany) under magnification 200 (×200) of microscopy (Zeiss, Germany) at prepared histological samples. The thickness was detected as um levels. • C.
(§2) All data was calculated as mean±S.D. Statistical analyses was conducted using Mann-Whitney U-Wilcoxon Rank Sum W test (M-W test) with SPSS for Windows (Release 6.1.3., SPSS Inc., USA).

ovariectomized ddY mice = test: Prophylactic effects in ovariectomized ddY mouse model (estrogen-deficient osteoporosis); format: in vivo; details: for histological profiles of epiphyseal regions of right tibia and femur: FIG. 11
Description: The effects of a drug would be based on histomorphometric changes of trabecular bone and thickness cortical bone in this model.
The objective of present study is to observe the prophylactic effect of DW1350MSA, and administration of drug was initiated 3 days after ovariectomy for prophylaxis study.
as §1, with “allocated” for “allocated to”, “were ovariectomized” for “were neurectomized”, “For” for “For the”, “initiated 3” for “initiated 2”, “after ovariectomy” for “after neurectomy”, “for 6” for “for 4”
DW1350MSA was dissolved in injectable distilled water and administered at a dosage volume of 10 ml/kg by oral gavage.
3) Operation • A. Sham operation: Bilateral ovaries were exposed by incision of skin and abdominal muscles, (about 3 cm) after that closed by skin suture. • B. Ovariectomy: After exposure of bilateral ovaries, they were removed. After that closed by routine methods. • C. Operation was conduct under Ketamine hydrochloride (M.W.=256.8; 23076-35-9, ICN Biochemicals Inc., USA) and Xylazine hydrochloride (M.W.=274.19; 116-00512, Wako Pure Chemical Industries Ltd., Japan) anesthesia.
After that, embedded in paraffin, sectioned (3˜4 um) and stained with hematoxylin-eosin stain.
Histomorphometric changes of tibia and femur were evaluated. All histomorphometric indices including trabecular bone volume (TBV, %), thickness of trabecular bone (Tbt), trabecular bone number (Tbn), and length of trabeculer bone (Tbl) were calculated using automated image analysis (analysis Image Processing; SIS, Germany) under magnification 200 (×200) of microscopy (Zeiss, Germany) in the epiphyseal regions of right tibia and/or femur. In addition, cortical bone thickness (Cbt) was measured in mid-shaft region of right tibia and femur. […] Trabecular bone volume was calculated as percentage levels. • B. Measurement of histomorphometric index of trabecular bone: Thickness of trabecular bone (Tbt), trabecular bone number (Tbn), and length of trabecular bone (Tbl) were calculated using automated image analysis in the epiphyseal regions of right tibia and/or femur. Tbt and Tbl were calculated as um levels, and Tbn were calculated as number/whole sectional part of epiphyseal regions levels. • C. Thickness of cortical bone (Cbt): Cortical bone thickness was detected in mid-shaft regions of right tibia and/or femur, and they were calculated using automated image analyzer at prepared histological samples.
as §2

rabbit osteoclasts = test: TRAP(+) MNC formation in isolated rabbit osteoclast cultures, single treatment without LTB4 (Example 6); format: cell-based; details: 100 nM LTB4, 48 hours, dentin slices
Description: Rabbit osteoclasts were isolated as described by Victoria Tai's report (Doctoral Dissertation, 1997, Graduate Department of Pharmacology, University of Toronto) and Rraser P. Coxon et al. (Methods in Molecular Medicine, vol 80). Neonatal rabbits (New Zealand White) were sacrificed by ether-inhaling method under a hood. The removed long bones were dissected free of attached soft tissues and placed into ice-cold PBS. The long bones were cut longitudinally and mechanically curetted in 10 ml medium 199 with antibiotics (10 ug/ml penicillin G and 50 ug/ml gentamycin) in a glass Petri dish. Each bone was curetted with a scalpel blade and was finely minced. The fragments were then vigorously agitated by pipetting up and down using a pasteur pipette and vortex-mixed for 30 seconds. The fragments were allowed to settle and the cell suspension was then transferred to a 50 ml tube and the previous step repeated three times to a total volume of 40 ml. The bone fragments were allowed to settle (>1 min). The cell suspension was then transferred to a new 50 ml tube, passed through a 40 um cell strainer and centrifuged at 200 g for 8 minutes. The supernatant was removed and the pellet was immediately resuspended in α-MEM with 2% FBS (bicarbonate buffered medium).
40 uL droplets of osteoclast-containing suspensions were plated onto 60 mm tissue culture plastic dishes or on dentine slices in 96-well microtiter plates in 2% medium. The cells were allowed ninety minutes for attachment before the addition of 2 mL α-MEM with 2% FBS. After 24 hr culture, cells were washed to remove non-adherent cells and replaced with fresh medium as describes below.
After 24 hr in culture, the medium was replaced with fresh medium containing control, LTB4 receptor antagonists (1000 nM), DW1350 (10, 100 and 1000 nM) or LTB4 (100 nM) and the cultures were continued for an additional 48 hrs.
All cells were cultured at 37° C. in a humidified atmosphere of 95% air and 5% CO2 in bicarbonate buffered medium at pH 7.4.
Differentiated osteoclasts are multinucleated cells and have specific enzyme activity, such as ‘tartrate-resistant acid phosphatase (TRAP)’. Therefore, Osteoclast formation was determined by counting the number of TRAP-positive multinucleated cells (TRAP(+) MNCs).
After culture, the cells were fixed with 10% neutral buffered formalin for 30 min at 4° C., washed twice in distilled water and stained for TRAP activity by incubating with substrate. The number of TRAP(+)MNC with more than 2 nuclei was counted under photomicroscope.
Results were expressed as mean number of TRAP(+)MNC±SD of All experiments were done at least twice. Statistical analysis was performed for each experiment by student t-test.

[2] = 10 mg/kg oral once a day for 4 weeks
[3] = 50 mg/kg oral once a day for 4 weeks
[4] = right femur, 10 mg/kg oral once a day for 6 weeks (F10, D10)
[5] = right femur, 50 mg/kg oral once a day for 6 weeks (D50)
[6] = right tibia, 10 mg/kg oral once a day for 6 weeks (F10, D10)
[7] = right tibia, 50 mg/kg oral once a day for 6 weeks (D50)
[8] = tibia and femur, DW1350MSA 10 and 50 mg/kg, Fosamax 10 mg/kg
[9] = 1 mg/kg oral once a day for 4 weeks

CS(=O)(=O)O.Cc1nc(-c2ccc(OCCCCCOc3ccc(C(N)=NO)cc3)cc2)c(C(C)C)s1 [DW1350MSA]
TBV (%) [1, 2]: 25.75 ± 2.87 # % | Cbt (um) [1, 2]: 171.36 ± 18.60 # um | TBV (%) [1, 3]: 33.29 ± 4.96 % | Cbt (um) [1, 3]: 193.87 ± 12.50 um | histological profiles of epiphyseal regions [1]: relatively well developed, especially in width and number, trabecular bone was detected | TBV % compared to control group (in words) [1]: significant dose-dependent (p<0.01) increase of trabecular bone volume % | cortical bone thickness compared to control group (in words) [1]: significant dose-dependent (p<0.01) increase of cortical bone thickness | histological profiles of epiphyseal regions of right tibia and femur (ovariectomized ddY mice): relatively well developed, especially in width and length, trabecular bone was detected | Cbt, cortical bone thickness (ovariectomized ddY mice; [4]): 118.00 ± 16.79 um | Ocn, osteoclast cell number (ovariectomized ddY mice; [4]): 5.00 ± 1.58 number | TBV, trabecular bone volume (ovariectomized ddY mice; [4]): 36.97 ± 9.59 # % | Tbl, trabecular bone length (ovariectomized ddY mice; [4]): 635.60 ± 190.76 um | Tbn, trabecular bone number (ovariectomized ddY mice; [4]): 19.00 ± 1.58 number/epiphyseal | Tbt, trabecular bone thickness (ovariectomized ddY mice; [4]): 48.60 ± 10.50 ## um | Cbt, cortical bone thickness (ovariectomized ddY mice; [5]): 140.26 ± 33.16 um | Ocn, osteoclast cell number (ovariectomized ddY mice; [5]): 4.40 ± 1.34 number | TBV, trabecular bone volume (ovariectomized ddY mice; [5]): 41.91 ± 6.04 # % | Tbl, trabecular bone length (ovariectomized ddY mice; [5]): 743.40 ± 187.00 um | Tbn, trabecular bone number (ovariectomized ddY mice; [5]): 21.80 ± 1.92 number/epiphyseal | Tbt, trabecular bone thickness (ovariectomized ddY mice; [5]): 68.00 ± 21.41 um | Cbt, cortical bone thickness (ovariectomized ddY mice; [6]): 136.80 ± 26.58 # um | Ocn, osteoclast cell number (ovariectomized ddY mice; [6]): 5.40 ± 1.52 # number | TBV, trabecular bone volume (ovariectomized ddY mice; [6]): 35.20 ± 4.90 # % | Tbl, trabecular bone length (ovariectomized ddY mice; [6]): 605.00 ± 160.44 ## um | Tbn, trabecular bone number (ovariectomized ddY mice; [6]): 11.80 ± 3.11 # number/epiphyseal | Tbt, trabecular bone thickness (ovariectomized ddY mice; [6]): 60.80 ± 13.20 # um | Cbt, cortical bone thickness (ovariectomized ddY mice; [7]): 170.40 ± 44.73 um | Ocn, osteoclast cell number (ovariectomized ddY mice; [7]): 3.60 ± 1.14 # number | TBV, trabecular bone volume (ovariectomized ddY mice; [7]): 38.42 ± 4.67 # % | Tbl, trabecular bone length (ovariectomized ddY mice; [7]): 679.20 ± 249.47 um | Tbn, trabecular bone number (ovariectomized ddY mice; [7]): 11.80 ± 3.96 # number/epiphyseal | Tbt, trabecular bone thickness (ovariectomized ddY mice; [7]): 112.60 ± 45.76 um | effect on decrease of Cbt induced by ovariectomy (summary in words) (ovariectomized ddY mice; [8]): significant effect to inhibit the decrease of Cbt induced by ovariectomy and the efficacy was higher than that of Fosamax | effect on decrease of TBV induced by ovariectomy (summary in words) (ovariectomized ddY mice; [8]): some significance effect to inhibit the decrease of TBV induced by ovariectomy but the efficacy was somewhat lower than that of Fosamax | effect on decrease of Tbl induced by ovariectomy (summary in words) (ovariectomized ddY mice; [8]): significant effect to inhibit the decrease of Tbl induced by ovariectomy and the efficacy was somewhat higher than that of Fosamax | effect on decrease of Tbn induced by ovariectomy (summary in words) (ovariectomized ddY mice; [8]): significance effect to inhibit the decrease of Tbn induced by ovariectomy and the efficacy was somewhat lower than that of Fosamax | effect on decrease of Tbt induced by ovariectomy (summary in words) (ovariectomized ddY mice; [8]): significance effect to inhibit the decrease of Tbt induced by ovariectomy and the efficacy was somewhat higher than that of Fosamax | effect on increase of Ocn induced by ovariectomy (summary in words) (ovariectomized ddY mice; [8]): significant effect to inhibit the increase of Ocn induced by ovariectomy and the efficacy was higher than that of Fosamax

NCCCC(O)(P(=O)(O)O)P(=O)(O)O [Fosamax, Alendronate]
TBV (%) [1, 9]: 21.81 ± 4.35 # % | Cbt (um) [1, 9]: 125.75 ± 36.01 um | histological profiles of epiphyseal regions [1]: more numerous extended trabecular bones were demonstrated compared to that of Control group | TBV % compared to control group (in words) [1]: significantly (p<0.01) increased compared to that of the control group | cortical bone thickness compared to control group (in words) [1]: significantly increased compared to that of the control group but significances were not demonstrated | histological profiles of epiphyseal regions of right tibia and femur (ovariectomized ddY mice): more numerous extended trabecular bones were demonstrated compared to that of Control | Cbt, cortical bone thickness (ovariectomized ddY mice; [4]): 53.00 ± 23.82 um | TBV, trabecular bone volume (ovariectomized ddY mice; [4]): 58.26 ± 5.77 % | Tbl, trabecular bone length (ovariectomized ddY mice; [4]): 460.80 ± 260.64 ## um | Tbn, trabecular bone number (ovariectomized ddY mice; [4]): 23.60 ± 2.97 # number/epiphyseal | Tbt, trabecular bone thickness (ovariectomized ddY mice; [4]): 33.00 ± 12.45 um | Cbt, cortical bone thickness (ovariectomized ddY mice; [6]): 59.80 ± 15.55 um | TBV, trabecular bone volume (ovariectomized ddY mice; [6]): 47.56 ± 7.23 # % | Tbl, trabecular bone length (ovariectomized ddY mice; [6]): 550.00 ± 74.98 ## um | Tbn, trabecular bone number (ovariectomized ddY mice; [6]): 12.60 ± 4.98 number/epiphyseal | Tbt, trabecular bone thickness (ovariectomized ddY mice; [6]): 83.20 ± 39.86 # um | effect on decrease of Cbt induced by ovariectomy (summary in words) (ovariectomized ddY mice; [8]): no favorable effect to changes of Cbt | effect on increase of Ocn induced by ovariectomy (summary in words) (ovariectomized ddY mice; [8]): no favorable effect to changes of Ocn

CCCCC/C=C\C[C@@H](O)/C=C/C=C/C=C\[C@@H](O)CCCC(=O)O [LTB4, leukotriene-B4]
increase in the number of TRAP-positive osteoclasts compared to the control group (rabbit osteoclasts): 30˜40% and 40%
